# Tested on: E. coli BL21
# Assay: MIC against Gram-negative bacteria: E. coli BL21
# Format: cell-based
# Details: E. coli BL21; 5×10^5 CFU/mL; 10 h cultivation at 37° C.
# Procedure, shortened: (§1)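 MIC = lowest concentration of recombinant protein showing no growth. Test proteins: purified human-derived EGF domain proteins, two-fold dilution series, three wells per concentration; inoculum 5×10^5 CFU/mL in LB; incubation 37° C with shaking at 175 rpm.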
row,Substance,MIC against E. coli BL21 [µg/mL]
1,PRT1486 (TVKSCDCLNGGSCVSDRNFSPGSGVYLCVCLPGFHGSLCE; listed as Homo sapiens),12.5

# Same assay, conditions: E. coli BL21; 10 h cultivation at 37° C.
row,Substance,MIC [µg/mL]
1,PRT933 (HRDPCEKNRCQNGGTCVAQAMLGKATCRCASGFTGEDCQ; listed as Homo sapiens),25
2,PRT944 (TSHPCFVSRPCLNGGTCHMLSRDTYECTCQVGFTGKECQ; listed as Homo sapiens),25

# Same assay, conditions: E. coli BL21; 10 h cultivation at 37° C.; 5×10^5 CFU/mL
row,Substance,MIC (μg/mL) E. coli BL21 [µg/mL]
1,PRT824 (YGPGCEQLCGCLNGGSCDAATGACRCPTGFLGTDCN; listed as Homo sapiens),25

# Tested on: Citrobacter diversus
# Assay: MIC against Gram-negative bacteria: Citrobacter diversus
# Format: cell-based
# Details: C. diversus; 10 h cultivation at 37° C.
# Procedure, shortened: as §1
row,Substance,MIC [µg/mL]
1,PRT933 (HRDPCEKNRCQNGGTCVAQAMLGKATCRCASGFTGEDCQ; listed as Homo sapiens),25
2,PRT944 (TSHPCFVSRPCLNGGTCHMLSRDTYECTCQVGFTGKECQ; listed as Homo sapiens),50

# Same assay, conditions: C. diversus; 10 h cultivation at 37° C.; 5×10^5 CFU/mL
row,Substance,MIC (μg/mL) C. diversus [µg/mL]
1,PRT824 (YGPGCEQLCGCLNGGSCDAATGACRCPTGFLGTDCN; listed as Homo sapiens),50

# Same assay, conditions: Citrobacter diversus; 5×10^5 CFU/mL; 10 h cultivation at 37° C.
row,Substance,MIC against C. diversus [µg/mL]
1,PRT1486 (TVKSCDCLNGGSCVSDRNFSPGSGVYLCVCLPGFHGSLCE; listed as Homo sapiens),12.5

# Tested on: Klebsiella pneumonia
# Assay: MIC against Gram-negative bacteria: Klebsiella pneumonia
# Format: cell-based
# Details: K. pneumonia; 10 h cultivation at 37° C.
# Procedure, shortened: as §1
row,Substance,MIC [µg/mL]
1,PRT933 (HRDPCEKNRCQNGGTCVAQAMLGKATCRCASGFTGEDCQ; listed as Homo sapiens),50
2,PRT944 (TSHPCFVSRPCLNGGTCHMLSRDTYECTCQVGFTGKECQ; listed as Homo sapiens),100

# Same assay, conditions: K. pneumonia; 10 h cultivation at 37° C.; 5×10^5 CFU/mL
row,Substance,MIC (μg/mL) K. pneumonia [µg/mL]
1,PRT824 (YGPGCEQLCGCLNGGSCDAATGACRCPTGFLGTDCN; listed as Homo sapiens),25

# Same assay, conditions: Klebsiella pneumonia; 5×10^5 CFU/mL; 10 h cultivation at 37° C.
row,Substance,MIC against K. pneumonia [µg/mL]
1,PRT1486 (TVKSCDCLNGGSCVSDRNFSPGSGVYLCVCLPGFHGSLCE; listed as Homo sapiens),25

# Tested on: Pseudomonas aeruginosa
# Assay: MIC against Gram-negative bacteria: Pseudomonas aeruginosa
# Format: cell-based
# Details: P. aeruginosa; 10 h cultivation at 37° C.
# Procedure, shortened: as §1
row,Substance,MIC [µg/mL]
1,PRT933 (HRDPCEKNRCQNGGTCVAQAMLGKATCRCASGFTGEDCQ; listed as Homo sapiens),12.5
2,PRT944 (TSHPCFVSRPCLNGGTCHMLSRDTYECTCQVGFTGKECQ; listed as Homo sapiens),50

# Same assay, conditions: P. aeruginosa; 10 h cultivation at 37° C.; 5×10^5 CFU/mL
row,Substance,MIC (μg/mL) P. aeruginosa [µg/mL]
1,PRT824 (YGPGCEQLCGCLNGGSCDAATGACRCPTGFLGTDCN; listed as Homo sapiens),50

# Same assay, conditions: Pseudomonas aeruginosa; 5×10^5 CFU/mL; 10 h cultivation at 37° C.
row,Substance,MIC against P. aeruginosa [µg/mL]
1,PRT1486 (TVKSCDCLNGGSCVSDRNFSPGSGVYLCVCLPGFHGSLCE; listed as Homo sapiens),25

# Tested on: Serratia marcescens
# Assay: MIC against Gram-negative bacteria: Serratia marcescens
# Format: cell-based
# Details: S. marcescens; 10 h cultivation at 37° C.
# Procedure, shortened: as §1
row,Substance,MIC [µg/mL]
1,PRT933 (HRDPCEKNRCQNGGTCVAQAMLGKATCRCASGFTGEDCQ; listed as Homo sapiens),50
2,PRT944 (TSHPCFVSRPCLNGGTCHMLSRDTYECTCQVGFTGKECQ; listed as Homo sapiens),12.5

# Same assay, conditions: S. marcescens; 10 h cultivation at 37° C.; 5×10^5 CFU/mL
row,Substance,MIC (μg/mL) S. marcescens [µg/mL]
1,PRT824 (YGPGCEQLCGCLNGGSCDAATGACRCPTGFLGTDCN; listed as Homo sapiens),25

# Same assay, conditions: Serratia marcescens; 5×10^5 CFU/mL; 10 h cultivation at 37° C.
row,Substance,MIC against S. marcescens [µg/mL]
1,PRT1486 (TVKSCDCLNGGSCVSDRNFSPGSGVYLCVCLPGFHGSLCE; listed as Homo sapiens),12.5

# Tested on: E. coli DH5α
# Assay: Antibacterial activity: MIC and growth curve against E. coli DH5α in 96-well plate
# Format: cell-based
# Details: minimal inhibitory concentration against E. coli DH5α; 96-well plate, 5×10^5 CFU/mL, 37° C., judged after 8 h
# Procedure, shortened: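 MIC taken as lowest protein level with no bacterial growth, tracked by A600 every 30 min during 37 °C, 175 rpm culture. Two-fold protein series 50-12.5 μg/mL final, triplicate wells, against 5×10^5 CFU/mL of LB-washed mid-log cells.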
row,Substance,MIC [µg/mL]
1,PRT824 (YGPGCEQLCGCLNGGSCDAATGACRCPTGFLGTDCN; listed as Homo sapiens),12.5
2,PRT933 (HRDPCEKNRCQNGGTCVAQAMLGKATCRCASGFTGEDCQ; listed as Homo sapiens),12.5
3,PRT944 (TSHPCFVSRPCLNGGTCHMLSRDTYECTCQVGFTGKECQ; listed as Homo sapiens),12.5
4,PRT1486 (TVKSCDCLNGGSCVSDRNFSPGSGVYLCVCLPGFHGSLCE; listed as Homo sapiens),12.5

# Tested on: Moraxella catarrhalis
# Assay: MIC against Gram-negative bacteria: Moraxella catarrhalis
# Format: cell-based
# Details: M. catarrhalis; 10 h cultivation at 37° C.
# Procedure, shortened: as §1
row,Substance,MIC [µg/mL]
1,PRT933 (HRDPCEKNRCQNGGTCVAQAMLGKATCRCASGFTGEDCQ; listed as Homo sapiens),50
2,PRT944 (TSHPCFVSRPCLNGGTCHMLSRDTYECTCQVGFTGKECQ; listed as Homo sapiens),12.5

# Same assay, conditions: M. catarrhalis; 10 h cultivation at 37° C.; 5×10^5 CFU/mL
row,Substance,MIC (μg/mL) M. catarrhalis [µg/mL]
1,PRT824 (YGPGCEQLCGCLNGGSCDAATGACRCPTGFLGTDCN; listed as Homo sapiens),25

# Same assay, conditions: Moraxella catarrhalis; 5×10^5 CFU/mL; 10 h cultivation at 37° C.
row,Substance,MIC against M. catarrhalis [µg/mL]
1,PRT1486 (TVKSCDCLNGGSCVSDRNFSPGSGVYLCVCLPGFHGSLCE; listed as Homo sapiens),25

# Tested on: Aeromonas hydrophila
# Assay: MIC against Gram-negative bacteria: Aeromonas hydrophila
# Format: cell-based
# Details: A. hydrophila; 10 h cultivation at 37° C.
# Procedure, shortened: as §1
row,Substance,MIC [µg/mL]
1,PRT933 (HRDPCEKNRCQNGGTCVAQAMLGKATCRCASGFTGEDCQ; listed as Homo sapiens),12.5
2,PRT944 (TSHPCFVSRPCLNGGTCHMLSRDTYECTCQVGFTGKECQ; listed as Homo sapiens),12.5

# Same assay, conditions: A. hydrophila; 10 h cultivation at 37° C.; 5×10^5 CFU/mL
row,Substance,MIC (μg/mL) A. hydrophila [µg/mL]
1,PRT824 (YGPGCEQLCGCLNGGSCDAATGACRCPTGFLGTDCN; listed as Homo sapiens),25

# Same assay, conditions: Aeromonas hydrophila; 5×10^5 CFU/mL; 10 h cultivation at 37° C.
row,Substance,MIC against A. hydrophila [µg/mL]
1,PRT1486 (TVKSCDCLNGGSCVSDRNFSPGSGVYLCVCLPGFHGSLCE; listed as Homo sapiens),25

# Tested on: Enterobacter cloacae
# Assay: MIC against Gram-negative bacteria: Enterobacter cloacae
# Format: cell-based
# Details: E. cloacae; 10 h cultivation at 37° C.
# Procedure, shortened: as §1
row,Substance,MIC [µg/mL]
1,PRT933 (HRDPCEKNRCQNGGTCVAQAMLGKATCRCASGFTGEDCQ; listed as Homo sapiens),25
2,PRT944 (TSHPCFVSRPCLNGGTCHMLSRDTYECTCQVGFTGKECQ; listed as Homo sapiens),50

# Same assay, conditions: E. cloacae; 10 h cultivation at 37° C.; 5×10^5 CFU/mL
row,Substance,MIC (μg/mL) E. cloacae [µg/mL]
1,PRT824 (YGPGCEQLCGCLNGGSCDAATGACRCPTGFLGTDCN; listed as Homo sapiens),12.5

# Same assay, conditions: Enterobacter cloacae; 5×10^5 CFU/mL; 10 h cultivation at 37° C.
row,Substance,MIC against E. cloacae [µg/mL]
1,PRT1486 (TVKSCDCLNGGSCVSDRNFSPGSGVYLCVCLPGFHGSLCE; listed as Homo sapiens),12.5

# Tested on: Proteus vulgaris
# Assay: MIC against Gram-negative bacteria: Proteus vulgaris
# Format: cell-based
# Details: P. vulgaris; 10 h cultivation at 37° C.
# Procedure, shortened: as §1
row,Substance,MIC [µg/mL]
1,PRT933 (HRDPCEKNRCQNGGTCVAQAMLGKATCRCASGFTGEDCQ; listed as Homo sapiens),12.5
2,PRT944 (TSHPCFVSRPCLNGGTCHMLSRDTYECTCQVGFTGKECQ; listed as Homo sapiens),50

# Same assay, conditions: P. vulgaris; 10 h cultivation at 37° C.; 5×10^5 CFU/mL
row,Substance,MIC (μg/mL) P. vulgaris [µg/mL]
1,PRT824 (YGPGCEQLCGCLNGGSCDAATGACRCPTGFLGTDCN; listed as Homo sapiens),50

# Same assay, conditions: Proteus vulgaris; 5×10^5 CFU/mL; 10 h cultivation at 37° C.
row,Substance,MIC against P. vulgaris [µg/mL]
1,PRT1486 (TVKSCDCLNGGSCVSDRNFSPGSGVYLCVCLPGFHGSLCE; listed as Homo sapiens),12.5

# Tested on: Proteus mirabilis
# Assay: MIC against Gram-negative bacteria: Proteus mirabilis
# Format: cell-based
# Details: P. mirabilis; 10 h cultivation at 37° C.
# Procedure, shortened: as §1
row,Substance,MIC [µg/mL]
1,PRT933 (HRDPCEKNRCQNGGTCVAQAMLGKATCRCASGFTGEDCQ; listed as Homo sapiens),25
2,PRT944 (TSHPCFVSRPCLNGGTCHMLSRDTYECTCQVGFTGKECQ; listed as Homo sapiens),25

# Same assay, conditions: P. mirabilis; 10 h cultivation at 37° C.; 5×10^5 CFU/mL
row,Substance,MIC (μg/mL) P. mirabilis [µg/mL]
1,PRT824 (YGPGCEQLCGCLNGGSCDAATGACRCPTGFLGTDCN; listed as Homo sapiens),12.5

# Same assay, conditions: Proteus mirabilis; 5×10^5 CFU/mL; 10 h cultivation at 37° C.
row,Substance,MIC against P. mirabilis [µg/mL]
1,PRT1486 (TVKSCDCLNGGSCVSDRNFSPGSGVYLCVCLPGFHGSLCE; listed as Homo sapiens),12.5
